The source of these data is patent US9950987B2, “Aspirin derivatives and uses thereof” (North Carolina Agricultural and Technical State University, priority 2012, dated 2018).

“Also recorded” adds a separate entry of the source.

Data set [1] deals with HCT-116 human colon cancer cells. Kind of data set: MTT growth inhibition assay, HCT-116. Particulars: 48 h, relative to control. The data set is classed as cell-based. Here is the method:
(§1) The effects of the aspirin-stilbene derivative conjugates compared to standards were evaluated based on the inhibition of growth of HCT-116 and HT-29 human colon cancer cells. Cells were plated in 96-well plates in growth medium with 10% FBS. After 24 h, the medium was replaced with fresh medium containing test agent with desired final concentration (20, 30, 40, 50, and 60 μM), and the cells were incubated for 48 h. Viable cells were analyzed using the MTT assay, and the results are shown (FIG. 1) relative to control. Each value represents the mean±S.D. (n=8). FIG. 1, Panel A summarizes the results for aspirin (As), Res, RAS, RAS-1, and the combination of resveratrol and aspirin (Res+As). […] FIG. 1, Panel B summarizes the results for As, MRes, MRAS and the combination of MRes and aspirin (MRes+As). […] FIG. 1, Panel C summarizes the results for As, Pt, PAS, and the combination of pterostilbene and aspirin (Pt+As).
(§2) The effects of As, 6-shogaol (6-s), SAS and the combination of 6-shogaol and aspirin (6-s+As) on the growth of HCT-116 and HT-29 human colon cancer cells and H1299 human lung cancer cells were measured. Cells were plated in 96-well plates in growth medium with 10% FBS. After 24 h, the medium was replaced with fresh medium containing test agent with desired final concentration (5, 7.5, 10, 15, and 20 μM), and the cells were incubated for 48 h. Viable cells were analyzed using the MTT assay, and the results are shown relative to control (FIG. 2).
(§3) The effects of As, 6-gingerol (6g), GAS, and the combination of 6-gingerol and aspirin (6g+As) on the growth of HCT-116 and HT-29 human colon cancer cells and H1299 human lung cancer cells were measured. Cells were plated in 96-well plates in growth medium with 10% FBS. After 24 h, the medium was replaced with fresh medium containing test agent with desired final concentration (20, 40, 60, 80, and 100 μM), and the cells were incubated for 48 h. Viable cells were analyzed using the MTT assay, and the results are shown relative to control (FIG. 3).

Data set [2] concerns HT-29 human colon cancer cells. Kind of data set: MTT growth inhibition assay, HT-29. The data set is classed as cell-based. As to conditions: 48 h, relative to control. Here is the method:
as §1, §2, §3
(Formazan colour is commonly taken as a measure of viable cells.)

In data set [3] the test system is H1299 human lung cancer cells. The experiment in a line: MTT growth inhibition assay, H1299. It is filed as cell-based. As to conditions: 48 h, relative to control. Here is the method: as §2, §3
A short description of data set [4]: Urinary metabolic profile in mice (LC/MS). The data set is classed as in vivo. As to conditions: oral gavage 200 mg/kg, 24 h urine, FIG. 5. Here is the method: The metabolic profile of Pt using LC/MS 23 was investigated. PAS was administered to mice (n=5) by oral gavage (200 mg/kg), and urine samples were collected in metabolism cages for 24 h after administration of vehicle (control mice) or PAS. LC/MS methods were developed to analyze PAS, pterostilbene, and aspirin. LC chromatograms of urine samples collected from PAS-treated mice obtained using positive APCI-MS interface (FIG. 5): (A) before and (B) after enzymatic hydrolysis (treated with β-glucuronidase and sulfatase); using negative ESI-MS interface: (C) before and (D) after enzymatic hydrolysis.
PAS had the highest response under positive APCI/MS mode, and aspirin and salicylic acid had the highest response under negative ESI/MS mode. Both positive APCI/MS and negative ESI/MS modes are sensitive to pterostilbene. However, aspirin and salicylic acid are hardly detectable under positive APCI/MS mode, and PAS is not detectable under negative ESI/MS mode. Therefore, APCI/MS positive mode was used to analyze PAS, pterostilbene, and their metabolites, and ESI/MS negative mode was used to analyze aspirin, pterostilbene, and their metabolites.

In data set [5] the test system is human colon cancer cells (HCT-116).
Data set [6] deals with human colon cancer cells (HT-29).

On to `CCCCCC(O)CC(=O)CCc1ccc(OC(=O)c2ccccc2OC(C)=O)c(OC)c1` (stereo not shown) [GAS, 6-gingerol aspirinate], for which the growth inhibitory effect entry is “much stronger growth inhibitory effect than 6-gingerol and aspirin alone, as well as the combination of 6-gingerol and aspirin (1:1)” in data set [1] (20, 40, 60, 80, 100 μM, FIG. 3); “much stronger growth inhibitory effect than 6-gingerol and aspirin alone, as well as the combination of 6-gingerol and aspirin (1:1)” in data set [2] (20, 40, 60, 80, 100 μM, FIG. 3); “much stronger growth inhibitory effect than 6-gingerol and aspirin alone, as well as the combination of 6-gingerol and aspirin (1:1)” in data set [3] (20, 40, 60, 80, 100 μM, FIG. 3).

Consider `COc1cc(C=Cc2ccc(OC(=O)c3ccccc3OC(C)=O)cc2)cc(OC)c1` [PAS, pterostilbene aspirinate], for which the growth inhibitory effect result in data set [1] (20, 30, 40, 50, 60 μM, FIG. 1) was “weaker growth inhibitory effects than pterostilbene and the combination of pterostilbene and aspirin (1:1)”. Besides, in data set [2] (20, 30, 40, 50, 60 μM, FIG. 1), the growth inhibitory effect result was “weaker growth inhibitory effects than pterostilbene and the combination of pterostilbene and aspirin (1:1)”. For the same molecule, in data set [4], the “detection of parent compound or deacetylated metabolites in urine” value is reported as “neither PAS nor its deacetylated metabolites were detected”; the “hydrolysis in vivo (urinary metabolites)” value was “hydrolyzed in mice to generate metabolites of aspirin and pterostilbene”.

Regarding `CC(=O)Oc1ccccc1C(=O)Oc1ccc(/C=C/c2cc(O)cc(O)c2)cc1` [RAS, 4′-aspirinated resveratrol], the growth inhibitory effect entry is “stronger growth inhibitory effect than resveratrol and aspirin alone, and stronger than the combination of resveratrol and aspirin (1:1); also recorded: much stronger growth inhibitory effects than RAS-1, MRAS, and PAS” in data set [1] (20, 30, 40, 50, 60 μM, FIG. 1); “stronger growth inhibitory effect than resveratrol and aspirin alone, and stronger than the combination of resveratrol and aspirin (1:1); also recorded: much stronger growth inhibitory effects than RAS-1, MRAS, and PAS” in data set [2] (20, 30, 40, 50, 60 μM, FIG. 1). Further, the hydrolysis in cells result is “hydrolyzed in human colon cancer cells (HCT-116 and HT-29) to generate resveratrol and aspirin” in data set [5]; “hydrolyzed in human colon cancer cells (HCT-116 and HT-29) to generate resveratrol and aspirin” in data set [6].

As to `CCCCC/C=C/C(=O)CCc1ccc(OC(=O)c2ccccc2OC(C)=O)c(OC)c1` [SAS, 6-shogaol aspirinate], the growth inhibitory effect entry in data set [1] (5, 7.5, 10, 15, 20 μM, FIG. 2) was “stronger growth inhibitory effect than aspirin alone, but less effective than 6-shogaol alone and the combination of 6-shogaol and aspirin (1:1)”; in data set [2] (5, 7.5, 10, 15, 20 μM, FIG. 2) it was “stronger growth inhibitory effect than aspirin alone, but less effective than 6-shogaol alone and the combination of 6-shogaol and aspirin (1:1)”; in data set [3] (5, 7.5, 10, 15, 20 μM, FIG. 2), “stronger growth inhibitory effect than aspirin alone, but less effective than 6-shogaol alone and the combination of 6-shogaol and aspirin (1:1)”.

As for “mono-methylated resveratrol aspirinate [MRAS]”, the growth inhibitory effect entry in data set [1] (20, 30, 40, 50, 60 μM, FIG. 1) is “weaker growth inhibitory effects than MRes and the combination of MRes and aspirin (1:1)”; in data set [2] (20, 30, 40, 50, 60 μM, FIG. 1), “weaker growth inhibitory effects than MRes and the combination of MRes and aspirin (1:1)”.
